Assay [1] has as its target T1, Glycine max (soybean) EPSP synthase DGT-1 variant DGT-1 v6 (G→A) (Glycine max, UniProt I1J7U9, G182A).
T1 sequence (I1J7U9 with tags, fused parts or gaps G182A): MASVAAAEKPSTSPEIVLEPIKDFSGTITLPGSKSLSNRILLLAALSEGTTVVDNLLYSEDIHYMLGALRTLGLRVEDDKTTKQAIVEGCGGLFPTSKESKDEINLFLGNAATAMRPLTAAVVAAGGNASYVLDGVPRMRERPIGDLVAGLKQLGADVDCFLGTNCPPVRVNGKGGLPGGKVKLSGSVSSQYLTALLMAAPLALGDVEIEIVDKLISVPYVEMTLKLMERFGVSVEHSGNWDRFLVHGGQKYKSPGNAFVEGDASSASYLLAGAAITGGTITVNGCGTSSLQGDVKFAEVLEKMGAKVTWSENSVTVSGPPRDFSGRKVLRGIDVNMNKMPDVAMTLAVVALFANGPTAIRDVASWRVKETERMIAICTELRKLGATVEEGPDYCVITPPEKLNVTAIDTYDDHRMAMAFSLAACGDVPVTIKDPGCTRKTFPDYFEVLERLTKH
Briefly: In vitro kinetic assay (inorganic phosphate production, malachite green). It is filed as biochemical. The settings on record: for IC50: IC50 (glyphosate). The source says: (§1) The following Class I enzymes: DGT-1 from Glycine max, DGT-3 from Brassica napus (GENBANK ACC NO: P17688), and DGT-7 from Triticum aestivum (GENBANK ACC NO: EU977181) were used as a comparison. The Class I EPSP synthase enzymes and mutant variants thereof were synthesized and evaluated. A mutation introduced into the plant EPSP synthase enzymes consisted of the Glycine to Alanine mutation made within the EPSP synthase enzyme at a similar location as that of the G96A mutation from the E. coli version of the enzyme. In addition, Threonine to Isoleucine and Proline to Serine mutations were introduced within these Class I EPSP synthase enzymes at analogous positions as that of amino acid 97 (T to I) and amino acid 101 (P to S) in the EPSP synthase of E. coli as described in Funke et al., (2009).
(§2) The location of the amino acid residue which was mutated from glycine to alanine is indicated by the first asterisk. The location of the amino acid residue which was mutated from threonine to isoleucine is indicated by the second asterisk. The location of the third amino acid residue which was mutated from proline to serine is indicated by the third asterisk. These mutations were introduced into different versions of DGT-1, DGT-3, and DGT-7. The different versions of the genes which contain the mutations are described in more detail below.
(§3) Additional constructs containing the dgt-1, dgt-3 and dgt-7 were synthesized. These constructs were used for in vitro testing of the dgt-1 v5, dgt-1 v6, dgt-1 v7, dgt-1 v8, dgt-3 v6, dgt-3 v7, dgt-3 v8, dgt-7 v5, dgt-7 v6, dgt-7 v7, and dgt-7 v8 gene sequences were outsourced to GeneArt for synthesis and cloning. The synthesized genes were cloned into the pET28 expression vector. The resulting constructions were labeled as pDAB102028 containing dgt-1 v5, pDAB102029 containing dgt-1 v6, pDAB102032 containing dgt-1 v7, pDAB102034 containing dgt-1 v8, pDAB100429 containing dgt-3 v6, pDAB100442 containing dgt-3 v7, pDAB100430 containing dgt-3 v8, pDAB102036 containing dgt-7 v5, pDAB102038 containing dgt-7 v6, pDAB102040 containing dgt-7 v7, and pDAB102042 containing dgt-7 v8.
(§4) Recombinant DGT proteins were overexpressed in Rosetta2™ (DE3) cells (Novagen, Madison, Wis.) from the constructs described above. A single colony was used to inoculate 50 mL starter cultures of LB containing chloramphenicol (25 μg/mL) and kanamycin (50 μg/mL) which were cultivated overnight at 37° C. The overnight cultures were used to inoculate 1 L of LB containing chloramphenicol (25 μg/mL) and kanamycin (50 μg/mL). The cultures were grown at 37° C. to an O.D.600=0.6 then placed in an ice water bath for 10 minutes. Expression of the target proteins was achieved by addition of IPTG to a final concentration of 500 μM. Induction was allowed to proceed overnight at 20° C. followed by harvesting via centrifugation at 8,000 rpm for 20 minutes. The cell pellets were stored at −80° C. until required for purification. All purification steps were carried out at 4° C.
(§5) Cell pellets from 1 L cultures were resuspended in 20-30 mL Buffer A (50 mM HEPES pH 7.5, 150 mM KCl, 2 mM DTT, 1 mM EDTA, 20 mM imidazole, and 5% glycerol). COMPLETE™ protease inhibitor cocktail (1 tablet/50 mL, Roche, Indianapolis, Ind.) and lysozyme (1 mg/mL, Sigma-Aldrich, St. Louis, Mo.) were then added and the suspension was stirred for 20 minutes. Cell lysis was performed using a Branson Sonifier 250 (3×60 second bursts) followed by removal of the cell debris by centrifugation at 16,000 rpm for 45 minutes. DGT enzymes were purified to homogeneity in one step via immobilized metal affinity chromatography (IMAC) using a 5 mL HisTrap FF crude column. The column was equilibrated in Buffer A and the sample was loaded in the same buffer. The column was then washed with 10 column volumes of Buffer A followed by elution in a 0-100% Buffer B (50 mM HEPES pH 7.5, 200 mM KCl, 2 mM DTT, 1 mM EDTA, 500 mM imidazole, and 5% glycerol) linear gradient over 25 column volumes. […]

Assay [2] concerns the target T2, Triticum aestivum (wheat) EPSP synthase DGT-7 variant DGT-7 v6 (G→A) (Triticum aestivum, UniProt B5M6A1, G167A).
T2 sequence (B5M6A1 with tags, fused parts or gaps G167A): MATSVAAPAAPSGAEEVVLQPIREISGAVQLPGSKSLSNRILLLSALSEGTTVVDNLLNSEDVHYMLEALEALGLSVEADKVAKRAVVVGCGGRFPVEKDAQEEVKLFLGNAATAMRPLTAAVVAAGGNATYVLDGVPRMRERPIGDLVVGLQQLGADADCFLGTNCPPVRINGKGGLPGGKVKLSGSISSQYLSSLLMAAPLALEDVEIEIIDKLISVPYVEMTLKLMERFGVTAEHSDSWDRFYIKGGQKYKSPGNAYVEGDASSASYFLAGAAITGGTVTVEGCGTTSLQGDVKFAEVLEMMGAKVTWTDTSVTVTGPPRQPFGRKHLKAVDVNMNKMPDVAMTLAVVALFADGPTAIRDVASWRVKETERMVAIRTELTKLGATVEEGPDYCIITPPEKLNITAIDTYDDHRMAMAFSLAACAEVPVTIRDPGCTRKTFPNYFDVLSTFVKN
The description is as above. It is filed as biochemical. The settings on record: for IC50: IC50 (glyphosate).
Text: as §1, §2, §3, §4, §5

We go through two compounds from patent publication US9873883B2, “Glyphosate resistant plants and associated methods” (Dow AgroSciences LLC, priority 2012, dated 2018).

SMILES strings stand for the structures.

As for `O=C(O)CNCP(=O)(O)O` [glyphosate, N-(phosphonomethyl)glycine], the IC50 in assay [1] (at 60 μM PEP) was 17.3 mM; in assay [1] (at 1 mM PEP) it was 21.1 mM; in assay [2] (at 60 μM PEP), 15.1 mM; in assay [2] (at 1 mM PEP), 8.1 mM.
With `C=C(OP(=O)(O)O)C(=O)O` [PEP, phosphoenolpyruvate], the “increase of Km for PEP” value in assay [1] (G to A mutation vs un-mutated) and in assay [2] (G to A mutation vs un-mutated) was about 8 fold throughout.
